The source of these data is the NIST ThermoML archive (doi:10.1016/j.jct.2015.09.032).

± gives the expanded uncertainty stated by the source.

For data set [1] the following is noted: Crystal; DTA.
The nature of data set [2]: Molar enthalpy of transition or fusion. Particulars: Crystal; DSC.

For the molecule `CN(C)CCOC(c1ccccc1)c1ccccc1.Cl` [2-diphenylmethoxy-N,N-dimethylethanamine hydrochloride], the Normal melting temperature in data set [1] was 169.2 ± 0.61 °C. The “Molar enthalpy of transition or fusion” value in data set [2] was found to be 8.72 ± 0.406 kcal/mol.
